Source: PubChem BioAssay AID1963961 (Molecular Pharmacology Branch, DTP, NCI, 2024)
One block for each molecule: values may come before it.

Test system: K98450-129-R-PDC multicell spheroids, viability
Assay: Anticancer human tumor K98450-129-R-PDC patient-derived colon adenocarcinoma cell line growth inhibition [PI3K]
Conditions: for IC50: curve of first compound; for viability, T/C: stronger effect = lower value
Summary of the method: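 Targeted small molecules plus PI3K inhibitors, half-log dose series from Cmax (default top 10 microM), were applied to heterotypic spheroids of cancer cells with HUVEC and MSCs. Viability indicated growth inhibition.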

[1] = second compound 0.0316 µM, first compound 0.0316 µM
[2] = second compound 0.0316 µM, first compound 0.1 µM
[3] = second compound 0.1 µM, first compound 0.0316 µM
[4] = second compound 0.1 µM, first compound 0.1 µM
[5] = second compound 0.316 µM, first compound 0.0316 µM
[6] = second compound 0.316 µM, first compound 0.1 µM
[7] = second compound 1 µM, first compound 0.0316 µM
[8] = second compound 1 µM, first compound 0.1 µM
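Note: spheroids exposed to agents for seven days before read-out.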

IC50 (second compound 0.0316 µM): > 10 µM
IC50 (second compound 0.1 µM): > 10 µM
IC50 (second compound 0.316 µM): > 10 µM
IC50 (second compound 1 µM): > 10 µM
IC50 (second compound 3.16 µM): > 10 µM
IC50 (second compound 10 µM): > 10 µM
Structure (SMILES): CNC(=O)c1ccc(N2C(=S)N(c3ccc(C#N)c(C(F)(F)F)c3)C(=O)C2(C)C)cc1F + CC(Nc1ncnc2nc[nH]c12)c1cc2cccc(Cl)c2c(=O)n1-c1ccccc1
viability, T/C [1]: 109%
viability, T/C [2]: 100%
viability, T/C (second compound 0.0316 µM, first compound 0.316 µM): 104%
viability, T/C (second compound 0.0316 µM, first compound 1 µM): 83.1%
viability, T/C (second compound 0.0316 µM, first compound 3.16 µM): 104%
viability, T/C (second compound 0.0316 µM, first compound 10 µM): 88.9%
viability, T/C [3]: 116%
viability, T/C [4]: 94%
viability, T/C (second compound 0.1 µM, first compound 0.316 µM): 106%
viability, T/C (second compound 0.1 µM, first compound 1 µM): 108%
viability, T/C (second compound 0.1 µM, first compound 3.16 µM): 88.8%
viability, T/C (second compound 0.1 µM, first compound 10 µM): 101%
viability, T/C [5]: 104%
viability, T/C [6]: 99.3%
viability, T/C (second compound 0.316 µM, first compound 0.316 µM): 97.2%
viability, T/C (second compound 0.316 µM, first compound 1 µM): 92.3%
viability, T/C (second compound 0.316 µM, first compound 3.16 µM): 112%
viability, T/C (second compound 0.316 µM, first compound 10 µM): 109%
viability, T/C [7]: 92.8%
viability, T/C [8]: 90.7%
viability, T/C (second compound 1 µM, first compound 0.316 µM): 95.5%
viability, T/C (second compound 1 µM, first compound 1 µM): 102%
viability, T/C (second compound 1 µM, first compound 3.16 µM): 99.8%
viability, T/C (second compound 1 µM, first compound 10 µM): 97.1%
viability, T/C (second compound 3.16 µM, first compound 0.0316 µM): 83.1%
viability, T/C (second compound 3.16 µM, first compound 0.1 µM): 95.4%
viability, T/C (second compound 3.16 µM, first compound 0.316 µM): 82%
viability, T/C (second compound 3.16 µM, first compound 1 µM): 83.1%
viability, T/C (second compound 3.16 µM, first compound 3.16 µM): 87.6%
viability, T/C (second compound 3.16 µM, first compound 10 µM): 96.6%
viability, T/C (second compound 10 µM, first compound 0.0316 µM): 76.8%
viability, T/C (second compound 10 µM, first compound 0.1 µM): 93.4%
viability, T/C (second compound 10 µM, first compound 0.316 µM): 83%
viability, T/C (second compound 10 µM, first compound 1 µM): 96.1%
viability, T/C (second compound 10 µM, first compound 3.16 µM): 109%
viability, T/C (second compound 10 µM, first compound 10 µM): 88%

IC50 (second compound 0.00316 µM): > 0.1 µM
IC50 (second compound 0.01 µM): > 0.1 µM
IC50 (second compound 0.0316 µM): > 0.1 µM
IC50 (second compound 0.1 µM): > 0.1 µM
IC50 (second compound 0.316 µM): > 0.1 µM
IC50 (second compound 1 µM): > 0.1 µM
Structure (SMILES): Cn1ncnc1[C@H]1c2n[nH]c(=O)c3cc(F)cc(c23)N[C@@H]1c1ccc(F)cc1 + CC(Nc1ccc2c(c1)OCCn1cc(N3C(=O)OCC3C(F)F)nc1-2)C(N)=O
viability, T/C (second compound 0.00316 µM, first compound 0.000316 µM): 112%
viability, T/C (second compound 0.00316 µM, first compound 0.001 µM): 92.8%
viability, T/C (second compound 0.00316 µM, first compound 0.00316 µM): 100%
viability, T/C (second compound 0.00316 µM, first compound 0.01 µM): 96.5%
viability, T/C (second compound 0.00316 µM, first compound 0.0316 µM): 102%
viability, T/C (second compound 0.00316 µM, first compound 0.1 µM): 95.4%
viability, T/C (second compound 0.01 µM, first compound 0.000316 µM): 114%
viability, T/C (second compound 0.01 µM, first compound 0.001 µM): 92.8%
viability, T/C (second compound 0.01 µM, first compound 0.00316 µM): 99.2%
viability, T/C (second compound 0.01 µM, first compound 0.01 µM): 93.8%
viability, T/C (second compound 0.01 µM, first compound 0.0316 µM): 95.9%
viability, T/C (second compound 0.01 µM, first compound 0.1 µM): 94.3%
viability, T/C (second compound 0.0316 µM, first compound 0.000316 µM): 104%
viability, T/C (second compound 0.0316 µM, first compound 0.001 µM): 99%
viability, T/C (second compound 0.0316 µM, first compound 0.00316 µM): 89.3%
viability, T/C (second compound 0.0316 µM, first compound 0.01 µM): 100%
viability, T/C [1]: 98.5%
viability, T/C [2]: 96.9%
viability, T/C (second compound 0.1 µM, first compound 0.000316 µM): 92%
viability, T/C (second compound 0.1 µM, first compound 0.001 µM): 100%
viability, T/C (second compound 0.1 µM, first compound 0.00316 µM): 99%
viability, T/C (second compound 0.1 µM, first compound 0.01 µM): 95.1%
viability, T/C [3]: 104%
viability, T/C [4]: 89.8%
viability, T/C (second compound 0.316 µM, first compound 0.000316 µM): 90.6%
viability, T/C (second compound 0.316 µM, first compound 0.001 µM): 89.5%
viability, T/C (second compound 0.316 µM, first compound 0.00316 µM): 96%
viability, T/C (second compound 0.316 µM, first compound 0.01 µM): 91.6%
viability, T/C [5]: 100%
viability, T/C [6]: 92.6%
viability, T/C (second compound 1 µM, first compound 0.000316 µM): 88.4%
viability, T/C (second compound 1 µM, first compound 0.001 µM): 92.2%
viability, T/C (second compound 1 µM, first compound 0.00316 µM): 88.8%
viability, T/C (second compound 1 µM, first compound 0.01 µM): 88.6%
viability, T/C [7]: 93.6%
viability, T/C [8]: 86.9%
